Reference: PubChem BioAssay AID248 (DTP/NCI, 2004)
Where “and” joins values, the source holds several entries; their conditions need not be identical. Equal values may be shown once. Toxic doses and inconclusive results are not listed.

System: L1210 leukemia ip in BDF1 mice, survival T/C
Assay: NCI In Vivo Anticancer Drug Screen. Data for tumor model L1210 Leukemia (intraperitoneal) in B6D2F1 (BDF1) mice
Settings: endpoint: mean survival time, higher = longer survival
Outline: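 Antitumor effect is assessed in tumor-bearing animals. Survival in the compound arm is compared with a vehicle-dosed control arm and expressed as their quotient.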

[1] = dose: 100.0 mg/kg/injection, schedule: Q01DX009 (ip), vehicle: Klucel (hydroxypropylcellulose) (HPC)
[2] = dose: 100.0 mg/kg/injection, schedule: Q04DX003 (ip), vehicle: Klucel (hydroxypropylcellulose) (HPC)
[3] = dose: 200.0 mg/kg/injection, schedule: Q01DX009 (ip), vehicle: Klucel (hydroxypropylcellulose) (HPC)
[4] = dose: 200.0 mg/kg/injection, schedule: Q04DX003 (ip), vehicle: Klucel (hydroxypropylcellulose) (HPC)
[5] = dose: 400.0 mg/kg/injection, schedule: Q01DX009 (ip), vehicle: Klucel (hydroxypropylcellulose) (HPC)
[6] = dose: 400.0 mg/kg/injection, schedule: Q04DX003 (ip), vehicle: Klucel (hydroxypropylcellulose) (HPC)
[7] = dose: 50.0 mg/kg/injection, schedule: Q04DX002 (ip), vehicle: Klucel (hydroxypropylcellulose) (HPC)
[8] = dose: 100.0 mg/kg/injection, schedule: Q04DX002 (ip), vehicle: Klucel (hydroxypropylcellulose) (HPC)
[9] = dose: 200.0 mg/kg/injection, schedule: Q04DX002 (ip), vehicle: Klucel (hydroxypropylcellulose) (HPC)
[10] = dose: 400.0 mg/kg/injection, schedule: Q04DX002 (ip), vehicle: Klucel (hydroxypropylcellulose) (HPC)
[11] = dose: 100.0 mg/kg/injection, schedule: Q01DX001 (ip), vehicle: carboxymethylcellulose (CMC)
[12] = dose: 200.0 mg/kg/injection, schedule: Q01DX001 (ip), vehicle: carboxymethylcellulose (CMC)
[13] = dose: 400.0 mg/kg/injection, schedule: Q01DX001 (ip), vehicle: carboxymethylcellulose (CMC)
[14] = dose: 100.0 mg/kg/injection, schedule: Q01DX009 (ip), vehicle: saline with Tween-80
[15] = dose: 200.0 mg/kg/injection, schedule: Q01DX009 (ip), vehicle: saline with Tween-80
[16] = dose: 400.0 mg/kg/injection, schedule: Q01DX009 (ip), vehicle: saline with Tween-80
[17] = dose: 100.0 mg/kg/injection, schedule: Q01DX001 (ip), vehicle: saline
[18] = dose: 200.0 mg/kg/injection, schedule: Q01DX001 (ip), vehicle: saline
[19] = dose: 400.0 mg/kg/injection, schedule: Q01DX001 (ip), vehicle: saline
[20] = dose: 100.0 mg/kg/injection, schedule: Q04DX003 (ip), vehicle: saline with Tween-80
[21] = dose: 200.0 mg/kg/injection, schedule: Q04DX003 (ip), vehicle: saline with Tween-80
[22] = dose: 400.0 mg/kg/injection, schedule: Q04DX003 (ip), vehicle: saline with Tween-80

## Cc1cccc(C)c1N1C(=O)CCC1=O
dose: 50.0 mg/kg/injection, schedule: Q01DX009 (ip), vehicle: Klucel (hydroxypropylcellulose) (HPC)
  T/C: 98 % of control
[1]
  T/C: 96 % of control
[2]
  T/C: 94 % of control
[3]
  T/C: 100 % of control
[4]
  T/C: 97 % of control
[5]
  T/C: 100 % of control
[6]
  T/C: 100 % of control

## COC(=O)C1CC2(C(=O)OC)CC(C(=O)OC)(CC(C(=O)OC)C2=O)C1=O (centres undefined)
[7]
  T/C: 93 % of control
[8]
  T/C: 102 % of control
[2]
  T/C: 95 % of control
[9]
  T/C: 108 % of control
[4]
  T/C: 89 % of control
[6]
  T/C: 92 % of control

## CN1CCC2(CC1)C(=O)N(Nc1ccccc1)C(=O)C2c1ccccc1 (centres undefined)
[8]
  T/C: 101 % of control
[9]
  T/C: 93 % of control

## COC(=O)c1c(I)cccc1[N+](=O)[O-]
[1]
  T/C: 92 % of control
[2]
  T/C: 97 % of control
[3]
  T/C: 91 % of control
[4]
  T/C: 103 % of control
[5]
  T/C: 96 % of control
[6]
  T/C: 97 % of control

## CN(C)CCCNCC(=O)Nc1ccc(S(=O)(=O)c2ccc([N+](=O)[O-])cc2)cc1
dose: 75.0 mg/kg/injection, schedule: Q01DX001 (ip), vehicle: saline
  T/C: 104 % of control
dose: 150.0 mg/kg/injection, schedule: Q01DX001 (ip), vehicle: saline
  T/C: 104 % of control

## CC(C)=NNc1ccc([N+](=O)[O-])cc1[N+](=O)[O-]
[7]
  T/C: 100 % of control
[8]
  T/C: 94 % of control and 107 % of control
[9]
  T/C: 102 % of control
[10]
  T/C: 100 % of control and 105 % of control

## O=C1OC(=C(Br)Br)C2C3C=CC(C3)C12 (centres undefined)
dose: 100.0 mg/kg/injection, schedule: Q04DX003 (ip), vehicle: saline
  T/C: 98 % of control
dose: 200.0 mg/kg/injection, schedule: Q04DX003 (ip), vehicle: saline
  T/C: 107 % of control

## C=C(C)CCCC(C)CC#N (centres undefined)
[11]
  T/C: 117 % of control
[12]
  T/C: 100 % of control
[13]
  T/C: 96 % of control

## O=C(Nc1cccc(O)c1)Oc1ccccc1
[14]
  T/C: 98 % of control
[15]
  T/C: 90 % of control
[16]
  T/C: 89 % of control

## c1ccc([P+](Cc2ccco2)(c2ccccc2)c2ccccc2)cc1
dose: 5.0 mg/kg/injection, schedule: Q01DX001 (ip), vehicle: saline
  T/C: 103 % of control
dose: 10.0 mg/kg/injection, schedule: Q01DX001 (ip), vehicle: saline
  T/C: 97 % of control
dose: 20.0 mg/kg/injection, schedule: Q01DX001 (ip), vehicle: saline
  T/C: 90 % of control
dose: 40.0 mg/kg/injection, schedule: Q01DX001 (ip), vehicle: saline
  T/C: 89 % of control

## CCCCC(=O)N/N=C\c1ccc(OCc2ccccc2)cc1
[17]
  T/C: 87 % of control
[18]
  T/C: 92 % of control
[19]
  T/C: 87 % of control

## CSc1nc(NN(C)C)c2[nH]c(C)nc2n1
[17]
  T/C: 92 % of control
[18]
  T/C: 97 % of control

## C[C@@H]1CN(C(=O)CCOS(C)(=O)=O)[C@@H](C)CN1C(=O)CCOS(C)(=O)=O
dose: 2.5 mg/kg/injection, schedule: Q01DX Z (ip), vehicle: carboxymethylcellulose (CMC)
  T/C: 112 % of control
dose: 3.7 mg/kg/injection, schedule: Q01DX Z (ip), vehicle: carboxymethylcellulose (CMC)
  T/C: 102 % of control
dose: 5.6 mg/kg/injection, schedule: Q01DX Z (ip), vehicle: carboxymethylcellulose (CMC)
  T/C: 115 % of control
dose: 8.4 mg/kg/injection, schedule: Q01DX Z (ip), vehicle: carboxymethylcellulose (CMC)
  T/C: 103 % of control
dose: 29.5 mg/kg/injection, schedule: Q01DX Z (ip), vehicle: carboxymethylcellulose (CMC)
  T/C: 116 % of control
dose: 60.0 mg/kg/injection, schedule: Q01DX Z (ip), vehicle: carboxymethylcellulose (CMC)
  T/C: 166 % of control
dose: 198.0 mg/kg/injection, schedule: Q01DX Z (ip), vehicle: carboxymethylcellulose (CMC)
  T/C: 117 % of control
dose: 200.0 mg/kg/injection, schedule: Q01DX Z (ip), vehicle: carboxymethylcellulose (CMC)
  T/C: 119 % of control
dose: 201.0 mg/kg/injection, schedule: Q01DX Z (ip), vehicle: carboxymethylcellulose (CMC)
  T/C: 91 % of control
dose: 300.0 mg/kg/injection, schedule: Q01DX Z (ip), vehicle: carboxymethylcellulose (CMC)
  T/C: 121 % of control and 90 % of control
dose: 302.0 mg/kg/injection, schedule: Q01DX Z (ip), vehicle: carboxymethylcellulose (CMC)
  T/C: 95 % of control

## CCS(=O)CCNC(=O)NS(=O)(=O)c1ccc(C)cc1 (centres undefined)
[20]
  T/C: 100 % of control
[21]
  T/C: 101 % of control
[22]
  T/C: 97 % of control

## O=S1(=O)CC(c2ccccc2)=NN=C(c2ccccc2)C1
[17]
  T/C: 92 % of control
[18]
  T/C: 86 % of control
[19]
  T/C: 92 % of control

## Clc1ccc(S/C=C/c2ccccc2)cc1
dose: 100.0 mg/kg/injection, schedule: Q01DX001 (ip), vehicle: Klucel (hydroxypropylcellulose) (HPC)
  T/C: 103 % of control
[1]
  T/C: 91 % of control
[2]
  T/C: 102 % of control
dose: 200.0 mg/kg/injection, schedule: Q01DX001 (ip), vehicle: Klucel (hydroxypropylcellulose) (HPC)
  T/C: 110 % of control
[3]
  T/C: 100 % of control
[4]
  T/C: 98 % of control
dose: 400.0 mg/kg/injection, schedule: Q01DX001 (ip), vehicle: Klucel (hydroxypropylcellulose) (HPC)
  T/C: 97 % of control
[5]
  T/C: 91 % of control
[6]
  T/C: 104 % of control

## C=CCCCCCCCC/C=C1\CCOC1=O
dose: 75.0 mg/kg/injection, schedule: Q01DX009 (ip), vehicle: saline with Tween-80
  T/C: 105 % of control
[20]
  T/C: 104 % of control
dose: 150.0 mg/kg/injection, schedule: Q01DX009 (ip), vehicle: saline with Tween-80
  T/C: 93 % of control
[21]
  T/C: 89 % of control
dose: 300.0 mg/kg/injection, schedule: Q01DX009 (ip), vehicle: saline with Tween-80
  T/C: 99 % of control
[22]
  T/C: 102 % of control

## CN1CC(=O)N2c3ccccc3CC2C1=O (centres undefined)
dose: 100.0 mg/kg/injection, schedule: Q04DX002 (ip), vehicle: saline with Tween-80
  T/C: 102 % of control
dose: 200.0 mg/kg/injection, schedule: Q04DX002 (ip), vehicle: saline with Tween-80
  T/C: 113 % of control
dose: 400.0 mg/kg/injection, schedule: Q04DX002 (ip), vehicle: saline with Tween-80
  T/C: 102 % of control

## O=C[CH2][Hg][Cl]
dose: 0.78 mg/kg/injection, schedule: Q01DX009 (ip), vehicle: saline with Tween-80
  T/C: 96 % of control
dose: 1.56 mg/kg/injection, schedule: Q01DX009 (ip), vehicle: saline with Tween-80
  T/C: 96 % of control
dose: 3.13 mg/kg/injection, schedule: Q01DX009 (ip), vehicle: saline with Tween-80
  T/C: 93 % of control

## Cc1ccccc1Sc1ccccc1[N+](=O)[O-]
[2]
  T/C: 95 % of control
[4]
  T/C: 106 % of control
[6]
  T/C: 103 % of control

## Clc1ccccc1CC12CCCCC1N2 (centres undefined)
[2]
  T/C: 103 % of control
[4]
  T/C: 90 % of control
[6]
  T/C: 103 % of control

## CCCCCCNC(=S)Nc1ccccc1
dose: 50.0 mg/kg/injection, schedule: Q01DX001 (ip), vehicle: saline
  T/C: 97 % of control
[17]
  T/C: 103 % of control
[18]
  T/C: 97 % of control

## CCCCc1ccc(N=Cc2ccc(C=Nc3ccc(CCCC)cc3)cc2)cc1
[14]
  T/C: 92 % of control
[15]
  T/C: 97 % of control
[16]
  T/C: 94 % of control

## O=S1(=O)c2ccccc2C2CC=CCC21 (centres undefined)
dose: 50.0 mg/kg/injection, schedule: Q01DX001 (ip), vehicle: carboxymethylcellulose (CMC)
  T/C: 98 % of control
[11]
  T/C: 98 % of control
[12]
  T/C: 98 % of control
[13]
  T/C: 93 % of control

## Cc1cc(-c2ccccc2O)nc(N(C)CC(=O)O)n1
[8]
  T/C: 94 % of control
[9]
  T/C: 98 % of control
[10]
  T/C: 96 % of control

## O=[N+]([O-])C1C(O)CCCC1O (centres undefined)
[17]
  T/C: 102 % of control
[18]
  T/C: 102 % of control
[19]
  T/C: 105 % of control
